Assay results as given in article PMC7699524, “Assessing the Intestinal Permeability and Anti-Inflammatory Potential of Sesquiterpene Lactones from Chicory” (Nutrients, 2020).

What was measured:
[1] = test system: Caco-2 cells; assay: Permeability across Caco-2 monolayer (apical concentration by LC-MS); settings: Caco-2 monolayer
Protocol: For intestinal permeability assessments of pure SLs, Caco-2 cells were seeded in 12 mm Transwell® inserts (polyester membrane, 0.4 μm pore size, Corning Costar Corp., NY, USA) at a density of 1.0 × 10^5 cell/cm^2. Cells were allowed to grow and differentiate to a confluent monolayer for 21 days postseeding with medium change three times per week. This mimics the apical and basolateral sides of the intestinal mucosa. Before the permeability assay, cells were washed with Hank’s balanced salt solution (HBSS) (Gibco, Life Technologies, Paisley, UK), and pure SLs in HBSS were added to the apical side for 4 h at the noncytotoxic concentration of 10 μM, while the basolateral well was replaced by HBSS. The fluorescent marker fluorescein (2.7 µM) was used as control, having been submitted to the same protocol as the SLs. Cells were submitted to an orbital shaking of 125 rpm (Ohaus, Shanghai, China), and samples from the basolateral side were collected after 15 min, 30 min, and then every hour until the end of the assay, and each time the retrieved volume was replaced by fresh HBSS to maintain sink conditions. After the 4 h assay, both apical and basolateral contents were collected, the cells were washed with PBS followed by culture medium, and culture medium was added to both compartments for 24 h to assess monolayer recovery. All samples were stored at −80 °C until LC-MS analysis.
Transepithelial electrical resistance (TEER) of all monolayers was monitored before and during experiments, and 24 h after the assay, to ensure their integrity using an EVOM™ voltmeter (WPI, Berlin, Germany). Before each experiment, TEER was measured and only monolayers with a TEER value higher than 500 Ω cm^2 were used. Experiments were done in triplicate.
Ultra High Performance Liquid Chromatography (UHPLC) separations were performed with a Dionex U3000 UHPLC coupled with a U3000 Photo Diode Array (PDA) and an LTQ-Orbitrap XL Mass Spectrometry (MS) system (Thermo-Fisher Ltd., Hemel Hempstead, UK). The MS and PDA systems were tuned and calibrated according to the manufacturers recommended procedures. The UHPLC was operated under Xcalibur and Chromeleon software (Thermo-Fisher Ltd. UK). A flow rate of 300 µL/min was applied, the column and guard (Synergi C18 Hydro-RP 80 Ä, 150 × 2.0 mm, 4 µm particle size; Phenomenex Ltd. U.K.) were maintained at a temperature of 30 °C. The solvent system compositions were, A: HPLC grade water (J.T. Baker, Scientific Chemical Supplies Ltd. UK), and solvent B: HPLC grade acetonitrile (J.T. Baker, Scientific Chemical Supplies Ltd. UK), both acidified with 0.1% MS grade formic acid (Ultima, Fisher Scientific, UK). A sample injection volume of 10 µL was employed in partial-loop mode. The gradient program was as follows: hold 2% B 0–2 min, 2–5% B 2–5 min, 5–45% B 5–25 min, 45–100% B 25–35 min, hold 100% B 35–38 min, 100–2% B 38–39 min, hold 2% B 39–44 min. Autosampler syringe and line washes were performed with 2:8 HPLC grade water: acetonitrile (J.T. Baker, Scientific Chemical Supplies Ltd., UK). The HPLC column eluent was first monitored by the U3000 PDA detector where spectra were collected in wavelength/absorbance mode from 200–600 nm. Additionally, three channel set points were employed, Channel A 210 nm, Channel B 260 nm, Channel C 320 nm. Spectra were collected with a filter bandwidth of 8 nm and wavelength step of 1 nm, the scan rate was 5 Hz.
The UHPLC eluent was next transferred to a Thermo LTQ-Orbitrap XL mass spectrometry system operated under Xcalibur (Thermo-Fisher Ltd. UK). For the first two minutes of analysis the UHPLC eluent was diverted to waste, from two to 39 min the eluent was directed to the MS detector, before being diverted back to waste between 39–44 min. Mass spectra were collected in centroid mode with a primary full scan event (m/z 100–1000) at a mass resolution of 30,000 (FWHM defined at m/z 400) within the Fourier Transform (FT) detector.

[2] = test system: calcineurin-Crz1 pathway; assay: β-Galactosidase CDRE-lacZ yeast reporter assay of Crz1 activation; format: cell-based, S. cerevisiae; settings: Saccharomyces cerevisiae
Protocol: Cultures at OD600= 0.5 ± 0.05 were diluted to OD600= 0.1 ± 0.01, transferred to 96-well microplate and challenged with the highest nontoxic concentration previously determined for each compound to investigate their putative inhibitory effect towards the calcineurin-responsive zinc finger (Crz1) activation. Measurements of β-galactosidase activity driven by the calcineurin-dependent response element (CDRE) regulated lacZ reporter gene allowed the quantitative assessment of the capacity of each compound to inhibit the activation of Crz1. FK506 (Cayman Chemicals, Ann Arbor, MI, USA) was used as a positive control at a final concentration of 12.5 μM. After 90 min of incubation with the respective compounds at 30 °C under orbital shaking, MnCl2 (Merck, Saint Louis, MO, USA) was added at a final concentration of 3 mM. After 90 min of incubation under the same conditions, OD600 of cultures were recorded, 10 μL of cell suspensions were transferred to a new 96-well plate followed by addition of 20 μL Y-PER cell lysis reagent (ThermoFisher Scientific), and the plates were incubated for 20 min at 37 °C without agitation. 240 μL of LacZ buffer (8.5 g/L Na2HPO4 (ROTH), 5.5 g/L NaH2PO4.H2O (Merck), 0.75 g/L KCl (Panreac), 0.246 g/L MgSO4.7H2O (Merck) containing […] o-nitrophenyl β-D-galactopyranoside (ONPG) (Sigma–Aldrich®—Poole, Dorset, UK) was added to each well, and plates were incubated at 30 °C for 2 h. The OD420 and OD550 were monitored using a Biotek Power Wave XS Microplate Spectrophotometer (Biotek® Instruments, Winooski, VT, USA). The results were expressed as Miller units (MU), applying the following equation, where V = volume of culture assayed in mL; t = reaction time in minutes: Miller unit = 1000 × (OD420 − 1.75 × OD550)/(t × V × OD600)(1)

[3] = test system: Crz1-GFP; assay: Fluorescence microscopy of Crz1-GFP nuclear accumulation; format: cell-based, S. cerevisiae; settings: 3.6 µM, then 3 mM MnCl2; YAA3 cells; MnCl2 only 55.6%
Protocol: YAA3 cells were treated with 3.6 µM of 11β,13-dihydrolactucin or 12.5 µM of FK506 for 90 min, followed by incubation with or without 3 mM MnCl2 for further 90 min. On the last 10 min of incubation, 10 µg/mL of Hoechst 33,342 (Sigma) nuclear dye were added. Cells were washed and resuspended in 5 µL of 1,4-Diazabicyclo[2.2.2]octane (DABCO, triethylenediamine) DABCO solution (200 mM DABCO in 75% (v/v) glycerol, 25% (v/v) PBS) (Sigma-Aldrich). The preparations were monitored for GFP fluorescence as previously described using a Zeiss Imager Z2 (Zeiss, Germany) fluorescence microscope. Photographs were taken with an Axiocam 506 mono (Zeiss). Three images were taken and analyzed for each sample, each one containing ≈ 600 individual cells. Images were analyzed using Fiji-ImageJ 1.53f (NIH, Bethesda, MD, USA).

[4] = test system: Crz1 target genes PMR1 and GSC2; assay: qRT-PCR of Crz1 target genes; format: cell-based, S. cerevisiae; settings: 3.6 µM, 3 mM MnCl2, qPCR
Protocol: The qRT-PCR analyses were performed as previously described. Briefly, total RNA was extracted using the RNeasy Mini kit (QIAGEN). After cleaning, 4 μg of total RNA was used for reverse-transcription with SuperScript™ II Reverse Transcriptase (Invitrogen). The qRT-PCR was performed in a QuantStudio™ 5 (Applied Biosystems), using SensiFAST™ SYBR Lo-ROX Kit (Bioline) to evaluate expression of the PMR1 (‘5-[…]-3′; 5′-[…]-3′) (GeneID: 852709), and GSC2 (5′-[…]-3′; 5′-[…]-3′) (GeneID: 852920) genes. Both ACT1 (5′-GATCATTGCTCCTCCAGAA-3′; 5′-[…]-3′) and PDA1 (5′-[…]-3′; 5′-[…]-3′) were used as reference genes. The results were expressed as relative mRNA expression levels relative to activation condition (mRNA levels a.u.) of at least three independent biological replicates ± SEM.

CC1=C2C(=O)C=C(CO)C2C2OC(=O)C(C)C2C(O)C1 (stereo not drawn) [11β,13-dihydrolactucin]
% of Decrease in SL Concentration in the Apical Side (t = 4h) ([1]; 10 µM apical, 4 h vs t = 0 h): 8.7% | SL conjugates with cysteine in the apical side after 4 h ([1]; LC-MS): not detected | Concentration of SL (Apical Side) t = 4 h ([1]; SL added at 10 µM apical, after 4 h): 8.3 ± 1.4 µM | Concentration of SL (Apical Side) t = 0 h ([1]; SL added at 10 µM apical, before experiment): 9.1 ± 1.3 µM | inhibition at 12.5 µM ([2]; read-out: Calcineurin-Crz1 Inhibition (%) ± SD, 12.5 µM, MnCl2 3 mM activation, strain YAA5): 43 ± 8% | IC50 ([2]; read-out: IC50 for Crz1 inhibition): 2350 ± 1450 nM | inhibition at 3.6 µM ([2]; read-out: Inhibition of Crz1 activation (dose response assay), 3.6 µM, MnCl2 activation): ≤ 54% | Percentage of cells with nuclear Crz1-GFP [3]: 21% | GSC2 mRNA expression [4]: downregulated | PMR1 mRNA expression [4]: downregulated
